This is an account of results in patent publication US11224609B2, “Mithramycin derivatives having increased selectivity and anti-cancer activity” (University of Kentucky Research Foundation, priority 2017, dated 2022).

Broadly, the GI50 is the concentration giving 50% growth inhibition.

The test system of data set [1] is TC-32 (Ewing sarcoma, EWS-FLI1 Type 1) cell line.
Data set [2] concerns TC-71 Ewing sarcoma cells (EWS-FLI1 Type 1). The conditions noted are these: 72 h growth inhibition.
The subject of data set [3] is VCaP prostate cancer cells (TMPRSS2-ERG). In words: 72 h GI50 assay in VCaP.
Data set [4] relates to 5838 Ewing sarcoma cells (EWS-ERG). The data set is described as follows: 72 h GI50 assay in 5838.
The test system of data set [5] is ES-8 Ewing sarcoma cells (EWS-FLI1 Type 2). The data set is described as follows: 72 h GI50 assay in ES-8. To be noted: read-out: ES-8 EWS-FLI1 Type 2 GI50; 72 h growth inhibition.
Data set [6] deals with ES-2 Ewing sarcoma cells (EWS-FLI1 Type 3). In words: 72 h GI50 assay in ES-2. The conditions noted are these: read-out: ES-2 EWS-FLI1 Type 3 GI50; 72 h growth inhibition.
The test system of data set [7] is ES-7 Ewing sarcoma cells (EWS-FLI1 Type 4). The data set is described as follows: 72 h GI50 assay in ES-7. The conditions noted are these: read-out: ES-7 EWS-FLI1 Type 4 GI50; 72 h growth inhibition.
A further data set concerns HeLa cells. In words: 72 h GI50 assay in HeLa. To be noted: read-out: HeLa GI50; 72 h growth inhibition.
Another data set deals with A549 cells. In words: 72 h GI50 assay in A549. To be noted: read-out: A549 GI50; 72 h growth inhibition.
For data set [8], the system named is RD-ES Ewing sarcoma cells (EWS-FLI1 Type 2). The data set is described as follows: 72 h GI50 assay in RD-ES. The conditions noted are these: read-out: RD-ES EWS-FLI1 Type 2 GI50; 72 h growth inhibition.
In data set [9] the test system is A-673 Ewing sarcoma cells (EWS-FLI1 Type 1). In words: 72 h GI50 assay in A-673. To be noted: read-out: A-673 EWS-FLI1 Type 1 GI50; 72 h growth inhibition.
The test system of another data set is LNCaP cells. In words: 72 h GI50 assay in LNCaP. The conditions noted are these: read-out: LNCaP GI50; 72 h growth inhibition.
The next data set deals with DU 145 cells. In words: 72 h GI50 assay in DU 145. The conditions noted are these: read-out: DU 145 GI50; 72 h growth inhibition.
Another data set relates to PANC-1 cells. In words: 72 h GI50 assay in PANC-1. The conditions noted are these: read-out: PANC-1 GI50; 72 h growth inhibition.
The next data set deals with HCT 116 cells. The data set is described as follows: 72 h GI50 assay in HCT 116. To be noted: read-out: HCT 116 GI50; 72 h growth inhibition.
In the next data set the test system is DMS 114 cells. The data set is described as follows: 72 h GI50 assay in DMS 114. To be noted: read-out: DMS 114 GI50; 72 h growth inhibition.
The test system of data set [10] is PC-3 (prostate cancer, no ETS translocation) cell line. In words: 72 h growth inhibition (GI50) assay in PC-3. The conditions noted are these: read-out: PC-3 Prostate cancer No ETS Translocation GI50; 72 h growth inhibition, PC-3 cells.
Data set [11] concerns Ewing sarcoma cell lines (TC-32, 5838, RD-ES, TC-71, A-673, ES-2, ES-7, ES-8). In words: Median GI50 in panel of Ewing sarcoma cell lines.
In data set [12] the test system is prostate cell lines lacking TMPRSS2-ERG. In words: Median GI50 in prostate cell lines lacking TMPRSS2-ERG. The conditions noted are these: read-out: Median GI50 in prostate cell lines, lacking TMPRSS2-ERG; unit inferred.

“And” between values parts separate entries of the source, which are not always exact repeats. Equal values may be shown once.

With `COC(=O)C(Cc1c[nH]c2ccccc12)NC(=O)C(OC)C1Cc2cc3cc(OC4CC(OC5CC(O)C(O)C(C)O5)C(O)C(C)O4)c(C)c(O)c3c(O)c2C(=O)C1OC1CC(OC2CC(OC3CC(C)(O)C(O)C(C)O3)C(O)C(C)O2)C(O)C(C)O1` (stereo not drawn) [MTMSA-Trp (3), Mithramycin SA-Tryptophan, reference compound], the “TC-32 Ewing sarcoma EWS-FLI1 Type 1 GI50” value in data set [1] (72 h growth inhibition, TC-32 cells) worked out at 16 nM. Besides, the “GI50 ratio PC-3:TC-32” value in [1] (selectivity, GI50 in PC-3 over GI50 in TC-32) is 4.8. Moreover, the “TC-71 EWS-FLI1 Type 1 GI50” value in data set [2] was determined as 57 nM. Besides, the GI50 in data set [3] (read-out: VCaP Prostate Cancer TMPRSS2-ERG GI50, 72 h growth inhibition, VCaP cells) worked out at 60 nM; in data set [4] (read-out: 5838 Ewing Sarcoma EWS-ERG GI50, 72 h growth inhibition, 5838 cells), 6 nM; in data set [5], 99 nM; in data set [6], 133 nM; in data set [7], 32 nM; in the data set on HeLa cells, 323 nM. In addition, the concentration for 50% growth inhibition (GI50) in the data set on A549 cells is 89 nM; in data set [8], 47 nM; in [9], 81 nM; in the data set on LNCaP cells, 109 nM; with DU 145 cells, 46 nM; in the data set with PANC-1 cells, 161 nM. Besides, the 50% growth inhibitory concentration (GI50) came out at 30 nM in the data set on HCT 116 cells; 151 nM in the data set with DMS 114 cells; 76 nM in data set [10]; 47 nM in data set [11] (read-out: Median GI50 in Ewing sarcoma cell lines, median over 8 Ewing sarcoma cell lines, 72 h); 76 nM in data set [12]. In [3] (selectivity for VCaP over other prostate cancer cell lines), the “Ratio of median GI50 Prostate cells lacking TMPRSS2-ERG:VCaP” value was 1.3. Moreover, in [4] (selectivity for 5838 cells), the “Ratio of median GI50 Non-Ewing sarcoma cell lines (cf Table 3):5838” value was determined as 18.2. Further, the “Ratio of Median GI50 non-Ewing sarcoma:Ewing sarcoma (Selectivity Index)” value in data set [11] (median GI50 non-Ewing panel over Ewing panel) was 2.3 and 1.5. In addition, the “Selectivity Index ratio Analogues:MTM (1)” value in data set [11] (selectivity index relative to MTM (1)) is 1.5.
